Laboratory results taken from PMC6951815 (Free radical biology & medicine, 2019).
pIC50: −log10 of the molar value.

Molecular target: Cys-TrxR (recombinant E. coli thioredoxin reductase) (Escherichia coli, UniProt P0A9P4)
Assay: Trx-dependent reduction assay
Assay type: biochemical

Sequence of Cys-TrxR (recombinant E. coli thioredoxin reductase) (P0A9P4 2-321): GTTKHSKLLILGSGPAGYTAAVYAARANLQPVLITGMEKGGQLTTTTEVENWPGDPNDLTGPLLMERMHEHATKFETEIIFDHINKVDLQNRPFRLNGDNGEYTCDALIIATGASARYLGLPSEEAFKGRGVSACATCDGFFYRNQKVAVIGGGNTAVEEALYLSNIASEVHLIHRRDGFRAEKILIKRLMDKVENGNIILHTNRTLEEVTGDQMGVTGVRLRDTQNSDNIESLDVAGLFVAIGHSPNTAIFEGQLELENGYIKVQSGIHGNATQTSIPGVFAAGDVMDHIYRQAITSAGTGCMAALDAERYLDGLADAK

Structure (SMILES)	pIC50
N#CSO [HOSCN]	5.03
N#C[Se]O [HOSeCN]	5.37
